Assay results as given in patent US20050176822A1, “Phenylacetonitrile derivatives and hair tonics and external preparations for skin containing the derivatives” (priority 2002, published 2005).

Assays:
[1] = tested on: artificial bulbus pili site (human dermal papilla cells + outer root sheath cells); assay: Growth-stimulative activity test on artificial human bulbus pili cell (Alamar Blue relative respiration level); type: cell-based; conditions: for Judgment (cell growth-stimulative effect by relative respiration level): final concentration 10^−12 M or 10^−14 M (not said which), 2 days incubation, negative control 0.1% ethanol = 100%; for cell growth-stimulative effect on artificial bulbus pili site, in words: final concentration 10^−12 M or 10^−14 M, summary of Table 2
Description: Growth-Stimulative Activity Test on Artificial Human Bulbus Pili Cell
(1) Preparation of First Stage Incubated Outer Root Sheath Cell
A bulbus pili site of a hair follicle isolated from a human scalp obtained by a plastic surgery was excised and then enzymatically treated in Keratinocyte-SFM medium (GibcoBRL:11965-011) supplemented with 1000 unit/ml dispase+0.2% collagenase at 37° C. for 30 minutes. After unnecessary hair follicle mesenchymal tissue such as connective tissue root sheath was removed therefrom using the tip of a syringe needle (27G), the residue was placed in the incubating space of an incubator coated with collagen and explant culture was performed in Keratinocyte-SFM medium supplemented with an antibacterial agent. After incubation for about 1 week, the medium was exchanged upon ensuring the growth of the cells. Cells grown to be subconfluent were treated with PBS(−)+0.05% trypsin at 37° C. for 3 minutes and the reaction was stopped with an equivalent amount or more of PBS(−)+0.1% trypsin inhibitor (Sigma). The cells were collected by centrifugal separation (1200 rpm×5 min) and suspended again in PBS(−). The cells were collected by centrifugal separation (1200 rpm×5 min), thereby washing the cells. Washed cells were stored while being frozen in a liquid nitrogen using Cellbanker II (DIA-IATRON: ZCB-201(100)), thereby obtaining the first stage incubated outer root sheath cells.
(2) Preparation of First Stage Incubated Dermal Papilla Cell
From a bulbus pili site obtained by excising a hair follicle isolated from a human scalp obtained by a plastic surgery, using the tip of a syringe needle (27G), a dermal papilla site was isolated under a stereoscopic microscope and placed in the incubating space of an incubator coated with collagen. Then, explant culture was performed in 10% FBS-added DMEM medium (GibcoBRL: 11965-092) supplemented with an antibacterial agent. After incubation for about 2 week, the medium was exchanged upon ensuring the growth of the cells. Cells grown to be subconfluent were treated with PBS(−)+0.05% trypsin at 37° C. for 3 minutes and the reaction was stopped with an equivalent amount or more of PBS(−)+0.1% trypsin inhibitor (Sigma). The cells were collected by centrifugal separation (1200 rpm×5 min) and suspended again in PBS(−). The cells were collected by centrifugal separation (1200 rpm×5 min), thereby washing the cells. Washed cells were stored while being frozen in a liquid nitrogen using Cellbanker II (DIA-IATRON: ZCB-201(100)), thereby obtaining the first stage incubated dermal papilla cells.
(3) Manufacture of the Artificial Bulbus Pili Site
(§1) The first stage incubated dermal papilla cell obtained above was subcultured three times (37° C., 5% CO2) in a 10% FBS-supplemented DMEM medium (GibcoBRL: 11965-092) in a 75 cm^2 incubation flask coated with Type I collagen, and then stored while being frozen in a liquid nitrogen using Cellbanker II (DIA-IATRON: ZCB-201(100)) (DPc).
as §1, with “Also, the” for “The”, “outer root sheath” for “dermal papilla”, “Keratinocyte-SFM” for “10% FBS-supplemented DMEM”, “11965-011)” for “11965-092)”, “(ORSc).” for “(DPc).”
The DPc and ORSc stored as frozen were thawed, washed with an ice-cooled Keratinocyte-SFM medium, dispersed in Keratinocyte-SFM(+) medium (which is Keratinocyte-SFM medium supplemented with 5 ng/mL epidermal growth factor and 5 μl/mL bovine pituitary glanusi extract), and subjected to an accurate cell density measurement using a hemocytometer. Then, each cell density was adjusted at 5×10^4 cells/ml, and the cell dispersions in equal volumes were combined under cooling with ice. 80 μl aliquots of the combined cell suspending Keratinocyte-SFM(+) medium were inoculated into individual wells of Sumilon celltight spheroid 96U plate (Sumitomo Bakelit co.,), and incubated for 2 days (37° C., 5% CO2). […]

[2] = tested on: immortalized human outer root sheath cell; assay: Growth-stimulative activity test on immortalized human outer root sheath cell ([3H]-thymidine uptake); type: cell-based; conditions: negative control (KBM+dH2O) = 100%, 2 days incubation
Description: Growth-Stimulative Activity Test on Immortalized Human Outer Root Sheath Cell (I) Immortalized Human Outer Root Sheath Cell Keratinocyte-SFM medium (Gibco BRL), to which a supplement attached with the medium was added, was used for culture on a dish which surface was coated with collagen. The cell was cultured until it became semiconfluent and then peeled off with 0.05% trypsin/PBS(−) and subcultured. 30-40th stage culture cells were used for study on growth. (2) Sample Preparation Each tested compound described below is dissolved with distilled water at the concentration of 10 mM and sterilized through Millipore filter. This aqueous solution was diluted with KBM at a predetermined concentration and added to the cell as a sample. The immortalized human outer root sheath cell was inoculated into a microplate (Iwaki, 24 wells) (20000 cells/well) with a growth medium KGM (Sanko Junyaku Co., Ltd., CC-3111) and incubated at 37° C. for 1 day. After each well was washed once with basal medium KBM (Sanko Junyaku Co., Ltd., CC-3101), the medium was exchanged with KBM containing each sample, and then incubated further for 2 days. [^3H]-Thymidine (Amersham Pharmacia Biotech K.K., TRK758, the final concentration: 20 μCi/ml) was added thereto and incubated at 37° C. for 3 hours. The cell was peeled off with 0.25% trypsin/PBS(−) and collected on a glass filter (Watmann, GLC). After [^3H]-thymidine that is not taken into the cell was removed by washing with distilled water, the filter was air-dried and then the radioactivity was measured by a liquid scintillation counter. […], using the uptake quantity of radioactivity in the sample-added group when that in the negative control medium (KBM+dH2O) was regarded as 100%, the immortalized human outer root sheath cell growth activity was evaluated.

COc1ccc(C(C#N)(CCCN(C)C(C)C)C(C)C)cc1OC (stereo not drawn) [Example 6]
Judgment (cell growth-stimulative effect by relative respiration level) [1]: + (Effect is recognized (105% or more, and less then 110%))

COc1ccc(C(C#N)(CCCn2cccn2)C(C)C)cc1OC (stereo not drawn) [Example 27, 2-(3′,4′-dimethoxyphenyl)-2-isopropyl-5-pyrazole-1″-yl-pentanenitrile]
Judgment (cell growth-stimulative effect by relative respiration level) [1]: + (Effect is recognized (105% or more, and less then 110%))

CNCCC[C@](C#N)(c1ccc(OC)c(OC)c1)C(C)C.Cl [Example 22, (R)-2-(3′,4′-dimethoxyphenyl)-2-isopropyl-5-methylaminopentanenitrile hydrochloride]
[^3H]-thymidine uptake quantity ([2]; concentration 10^−9 M): 105% | [^3H]-thymidine uptake quantity ([2]; concentration 10^−10 M): 98% | [^3H]-thymidine uptake quantity ([2]; concentration 10^−11 M): 111% | [^3H]-thymidine uptake quantity ([2]; concentration 10^−12 M): 135% | [^3H]-thymidine uptake quantity ([2]; concentration 10^−13 M): 153% | [^3H]-thymidine uptake quantity ([2]; concentration 10^−14 M): 160%

CCCN(CCC)CCCC(C#N)(c1ccc(OC)c(OC)c1)C(C)C (stereo not drawn) [Example 12]
Judgment (cell growth-stimulative effect by relative respiration level) [1]: + (Effect is recognized (105% or more, and less then 110%))

CCCCN(C)CCCC(C#N)(c1ccc(OC)c(OC)c1)C(C)C (stereo not drawn) [Example 7]
Judgment (cell growth-stimulative effect by relative respiration level) [1]: + (Effect is recognized (105% or more, and less then 110%))

COc1ccc([C@@](C#N)(CCCN(C)CCC(C)C)C(C)C)cc1OC.Cl [Example 23, (R)-2-(3′,4′-dimethoxyphenyl)-2-isopropyl-5-[N-methyl-N-(3-methylbutyl)amino]-pentanenitrile hydrochloride]
[^3H]-thymidine uptake quantity ([2]; concentration 10^−9 M): 115% | [^3H]-thymidine uptake quantity ([2]; concentration 10^−10 M): 106% | [^3H]-thymidine uptake quantity ([2]; concentration 10^−11 M): 107% | [^3H]-thymidine uptake quantity ([2]; concentration 10^−12 M): 117% | [^3H]-thymidine uptake quantity ([2]; concentration 10^−13 M): 114% | [^3H]-thymidine uptake quantity ([2]; concentration 10^−14 M): 125%

CCCCCN(C)CCCC(C#N)(c1ccc(OC)c(OC)c1)C(C)C (stereo not drawn) [Example 28, 2-(3′,4′-dimethoxyphenyl)-2-isopropyl-5-[N-methyl-N-(n-pentyl)amino]pentane nitrile]
Judgment (cell growth-stimulative effect by relative respiration level) [1]: ++ (Strong effect is recognized (110% or more, and less than 115%)) | cell growth-stimulative effect on artificial bulbus pili site, in words [1]: strong effects

COc1ccc(C(C#N)(CCCn2cccc2)C(C)C)cc1OC (stereo not drawn) [Example 25, 2-(3′,4′-dimethoxyphenyl)-2-isopropyl-5-pyrrole-1″-yl-pentanenitrile]
Judgment (cell growth-stimulative effect by relative respiration level) [1]: ++ (Strong effect is recognized (110% or more, and less than 115%)) | cell growth-stimulative effect on artificial bulbus pili site, in words [1]: strong effects

COc1ccc(C(C#N)(CCCN2CCOCC2)C(C)C)cc1OC (stereo not drawn) [Example 24, 2-(3′,4′-dimethoxyphenyl)-2-isopropyl-5-morpholine-4″-yl-pentanenitrile]
Judgment (cell growth-stimulative effect by relative respiration level) [1]: ± (Weak effect is recognized (102% or more, and less then 105%))

CCN(C)CCCC(C#N)(c1ccc(OC)c(OC)c1)C(C)C (stereo not drawn) [Example 4]
Judgment (cell growth-stimulative effect by relative respiration level) [1]: +++ (Very strong effect is recognized (115% or more)) | cell growth-stimulative effect on artificial bulbus pili site, in words [1]: very strong effects

COc1ccc(C(C#N)(CCCN(C)CCC(C)C)C(C)C)cc1OC.Cl (stereo not drawn) [Example 21, 2-(3′,4′-dimethoxyphenyl)-2-isopropyl-5-[N-methyl-N-(3-methylbutyl)amino]-pentanenitrile hydrochloride]
[^3H]-thymidine uptake quantity ([2]; concentration 10^−9 M): 151% | [^3H]-thymidine uptake quantity ([2]; concentration 10^−10 M): 143% | [^3H]-thymidine uptake quantity ([2]; concentration 10^−11 M): 160% | [^3H]-thymidine uptake quantity ([2]; concentration 10^−12 M): 114% | [^3H]-thymidine uptake quantity ([2]; concentration 10^−13 M): 118%

CCCN(C)CCCC(C#N)(c1ccc(OC)c(OC)c1)C(C)C (stereo not drawn) [Example 5]
Judgment (cell growth-stimulative effect by relative respiration level) [1]: + (Effect is recognized (105% or more, and less then 110%))

COc1ccc(C(C#N)(CCCn2ccnc2)C(C)C)cc1OC (stereo not drawn) [Example 26, 2-(3′,4′-dimethoxyphenyl)-5-imidazole-1″-yl-2-isopropylpentanenitrile]
Judgment (cell growth-stimulative effect by relative respiration level) [1]: + (Effect is recognized (105% or more, and less then 110%))

COc1ccc(C(C#N)(CCCN(CC(C)C)CC(C)C)C(C)C)cc1OC (stereo not drawn) [Example 15]
Judgment (cell growth-stimulative effect by relative respiration level) [1]: + (Effect is recognized (105% or more, and less then 110%))

COc1ccc(C(C#N)(CCCN(C)CC(C)C)C(C)C)cc1OC (stereo not drawn) [Example 8]
Judgment (cell growth-stimulative effect by relative respiration level) [1]: ++ (Strong effect is recognized (110% or more, and less than 115%)) | cell growth-stimulative effect on artificial bulbus pili site, in words [1]: strong effects
